# Experimental data: patent publication US20060040937A1, “N-aroyl cyclic amines as orexin receptor antagonists” (Glaxo Group Limited, priority 2002, published 2006)
# Ends that are not written are not given here.
# Tests used:
# rat = test: Rat sleep/EEG studies; type: in vivo; details: central administration at the onset of the normal sleep period
# From the text: Therefore antagonists of its receptor may be useful in the treatment of sleep disorders including insomnia.
# freely-feeding rats = details: central administration, 4 hour time period; cited from earlier work
substance,measurement,setting,value
"orexin-A: peptide ligand for the orexin-1 receptor, an agonist of the orexin receptors; amino acid sequence printed in b97-b99 (QPLPDCCRQKTCSCRLYELLHGAGNHAAGILTL; ends and bridges not checked; cysteine pairing not given here; UniProt O43612 34-66, looked up)",effect on arousal (sleep/EEG),rat,dose-related increase in arousal
same,increase in food intake over control rats receiving vehicle,freely-feeding rats,approximately four-fold
